Reference: patent publication US20250381269A1, “BISPECIFIC ANTIBODY BINDING EGFR AND B7-H3” (FORTVITA BIOLOGICS (SINGAPORE) PTE. LTD., priority 2022, published 2025)

How the values were obtained:
[1] = system: NCI-H358 tumor-bearing mice; experiment: Anti-tumor efficacy in NCI-H358 tumor-bearing mice, combination with AMG510; assay type: in vivo, NOG mice; conditions: NCI-H358, NOG mice, day 33; for Tumor volume (mm^3): antibodies 10 mg/kg i.p. Q3-4D x4 (h-IgG 20 mg/kg), AMG510 10 mg/kg intragastric QD x14; for Tumor growth inhibition (%): antibodies 10 mg/kg i.p. Q3-4D x4, AMG510 10 mg/kg intragastric QD x14, vs h-IgG 20 mg/kg
Protocol: SPF female NOG mice (purchased from Beijing Vital River Laboratory Animal Technology Co., Ltd.) with certificate No. 1100112211001153625 were used in the experiment.
(§1) NCI-H358 cells were routinely subcultured for the subsequent in-vivo experiment. The cells were collected by centrifugation. Then the NCI-H358 cells were resuspended in an equal-proportion mixture of PBS (1×) and Matrigel Matrix (Corning) to prepare a cell suspension with a cell concentration of 25×10^6 cells/mL. On day 0, 0.2 mL of the cell suspension was taken and subcutaneously inoculated to the right abdominal area of NOG mice to establish NCI-H358 tumor-bearing mouse models.
Six days after the tumor cell inoculation, the tumor volume in each mouse was measured. The mice were grouped (with 7 mice in each group).
Administration was performed on days 6, 9, 12, and 15 after the inoculation of NCI-H358 cells. Mice were monitored for tumor volume and body weight twice a week. […] Mice were monitored for tumor volume twice a week, and were monitored for body weight every day during the administration, and twice a week after the end of administration. […] On day 33 after the inoculation, the relative tumor growth inhibition (TG1%) was calculated by the following formula: TG1%=100%×(control group tumor volume−treatment group tumor volume)/(control group tumor volume−control group tumor volume before administration).
Tumor volume measurement: The maximum length of major axis (L) and maximum length of minor axis (W) of tumors were measured with a vernier caliper, and tumor volume was calculated by the following formula: V=L×W^2/2. The mice were weighed using an electronic balance.

H1975 = experiment: ADCC report assay, H1975; assay type: cell-based; conditions: EGFR L858R T790M, KRAS WT, effector/target 10:1, 20 h
Protocol: In the ADCC report assay, ADCC effector cells ((Promega, G7102)) are engineered cells in which FcRIIIa (V158) receptor is overexpressed into Jurkat T cells, which rapidly respond to ADCC through the NFAT-RE driving element within the Jurkat T cells.
• (1) Tumor cells (cell lines listed in Table 3) and ADCC effector cells (Promega, G7102) were mixed well (1.5E4 cells: 1.5E5 cells/well/100 μL (1.5E5: 1.5E6 cells/mL)) according to an effector/target ratio (10:1), and added to a 96-well white plate (NUNC, 136101). • (2) The antibody molecules prepared in advance by dilution were added to the corresponding cell well plates, mixed well, and cultured at 37° C. with 5% CO2 for 20 h. • (3) The Bio-glo reagent (Promega, G755B) prepared in advance was added to the cell well plate, the plate was left to stand at room temperature for 10-15 min in the dark, and then the cells were detected by a multimode microplate reader (Molecular Devices, Spectra MAXi3).

H292 = experiment: Proliferation inhibition experiment, H292 (NSCLC); assay type: cell-based; conditions: EGFR WT, KRAS WT
Protocol: (§2) • (1) NSCLC: plated at 1500-2500 cells/100 μL in a 96-well low-adsorption plate (Corning, CLS7007-24EA) for 3D cell culture, in which the following cell lines and specific amounts were used: • NSCLC: 2000 cells/100 μL/well • NCI-H292: Cell Bank of the Chinese Academy of Sciences, SCSP-582 • NCI-H322: Cobioer, CBP60134 • NCI-H1650: ATCC, CRL-5883 • NCI-H1975: ATCC, CRL-5908 • SK-MES-1: CoBioer, CBP60152 • NCI-H1703: ATCC, HTB-43 • PC9+hB7H3: constructed as described above • CRC and HNSCC: plated at 1500-2000 cells/100 μL in a 96-well white-bottom plate (NUNC, 136101) for 2D cell culture, in which the following cell lines and specific amounts were used: • CRC: 1500 cells/100 μL/well • CCK-81: CoBioer, CBP60581 • HT-55: CoBioer, CBP60012 • H508: CoBioer, CBP60795 • LS180: CoBioer, CBP60034 • HNSCC: 1500 cells/100 μL/well • TE-1: CoBioer, CBP60655 • Colo680: CoBioer, CBP60452. (2) The antibody molecules prepared in advance by dilution were added to the corresponding cell well plate, mixed well, and cultured in an incubator at 37° C. with 5% CO2 for 5 days. • (3) After 5 days of continuous culture for proliferation inhibition assay, the Cell-Titer reagent (Promega, G7572) prepared in advance was added to cell wells, the plate was left to stand at room temperature for 15-25 min in the dark, and then CRC and HNSCC cells were directly detected by a multimode microplate reader (Molecular Devices, Spectra MAXi3). • (4) NSCLC: Cell-Titer and the cell mixture were transferred to a 96-well white-bottom plate (NUNC, 136101) and detected by a multimode microplate reader (Molecular Devices, Spectra MAXi3).

[2] = system: NCI-H292 tumor-bearing mice; experiment: Anti-tumor efficacy in NCI-H292 tumor-bearing mice; assay type: in vivo; conditions: NCI-H292, Balb/c Nude mice, 5 mg/kg i.p. Q3-4D x4; for Tumor volume (mm^3): day not printed in column (TGI based on day 22); for Complete response rate @ Day 59: tumor volume of 0, 5 mice per group; for Tumor growth inhibition (%) @ Day 22: vs h-IgG 5 mg/kg
From the text: SPF female Balb/c Nude mice (purchased from Beijing Vital River Laboratory Animal Technology Co., Ltd.) with certificate No. 110011211108430747 were used in the experiment.
as §1, with “NCI-H292” for “NCI-H358”, “20×10^6” for “25×10^6”, “0.” for “0,”, “Balb/c Nude” for “NOG”
Four days after the tumor cell inoculation, the tumor volume in each mouse was measured. The mice were grouped (with 5 mice in each group).
h-IgG. […] Administration was performed on days 4, 8, 12, and 15 after the inoculation of NCI-H292 cells. Mice were monitored for tumor volume and body weight twice a week. […] Since death of mice due to tumors occurred earlier in some groups, relative tumor growth inhibition (TG1%) was calculated based on the tumor volume on day 22 after the inoculation by the following formula:
TG1%=100%×(control group tumor volume−treatment group tumor volume)/(control group tumor volume−control group tumor volume before administration).
Tumor volume measurement: The maximum length of major axis (L) and maximum length of minor axis (W) of tumors were measured with a vernier caliper, and tumor volume was calculated by the following formula: V=L×W^2/2.
The mice were weighed using an electronic balance. Mice with tumor volumes above 2000 mm3 or weight loss above 20% were euthanized.

H1650 = experiment: Proliferation inhibition experiment, H1650 (NSCLC); assay type: cell-based; conditions: EGFR Amplification Del19, KRAS WT
Protocol: as §2

amivantamab [JNJ372]
Tumor volume (mm^3) [1]: 196 mm^3
Tumor growth inhibition (%) [1]: 82%
EC50 (H1975): 0.063 nM
Max inhibition (%) Mean ± SD (H292): 64.5 ± 2.5%
IC50 (H292; 3D culture, 5 days): 141 nM
Tumor volume (mm^3) [2]: 177 mm^3
Complete response rate @ Day 59 [2]: 0/5
Tumor growth inhibition (%) @ Day 22 [2]: 100%
Max inhibition (%) Mean ± SD (H1650): 31.0 ± 1.4%
IC50 (H1650; 3D culture, 5 days): 20.6 nM

zalutumumab [Zalu mAb]
Tumor volume (mm^3) [1]: 126 mm^3
Tumor growth inhibition (%) [1]: 111%
EC50 (H1975): 0.029 nM
Max inhibition (%) Mean ± SD (H292): 79.4 ± 1.6%
Tumor volume (mm^3) [2]: 96 mm^3
Complete response rate @ Day 59 [2]: 1/5
Tumor growth inhibition (%) @ Day 22 [2]: 107%
Max inhibition (%) Mean ± SD (H1650): 26.8 ± 2.6%
